According to patent publication US7132419B2, “Pharmaceutical compounds” (Xenova Limited, priority 2000, dated 2006):

How the values were obtained:
[1] = tested on: Jurkat human leukaemia cell line (JLC); assay: Cytotoxicity, Jurkat leukaemia cell line JLC; type: cell-based; conditions: concentration required to give 50% cell kill
Experimental: (§1) The cytotoxicity of the compounds described herein was also measured using the Jurkat human leukaemia cell line (JLC) and also the amsacrine-resistant Jurkat human leukaemia cell line (JLA) and the doxorubicin-resistant Jurkat human leukaemia cell line (JLD). The cytotoxicity, as measured by the IC50 (concentration required to give 50% cell kill) in the JLA or JLD cell line divided by the cytotoxicity in the JLC cell line gives an indication of the degree to which a compound may be affected by atypical drug resistance and is termed the resistance factor (Rf) of the compound. The method used has been described previously (Finlay et al, Eur J. Cancer 32A, 708–714, 1996). Compounds were active in the range 1 nM to 5 μM.

[2] = tested on: amsacrine-resistant Jurkat human leukaemia cell line (JLA); assay: Cytotoxicity, amsacrine-resistant Jurkat cell line JLA; type: cell-based; conditions: for Rf (JLA/JLC): IC50 in JLA divided by IC50 in JLC, atypical drug resistance; for IC50: concentration required to give 50% cell kill
Experimental: as §1

[3] = tested on: drug resistant human small cell lung carcinoma cell line H69/LX4 which overexpresses P-glycoprotein (Pgp); assay: Cytotoxicity, drug resistant H69/LX4 cell line (AlamarBlue); type: cell-based; conditions: for Rf (resistance factor): IC50 in H69/LX4 divided by IC50 in H69/P, Pgp-dependent MDR; for IC50: concentration required to give 50% cell kill, 5–6 days incubation
Experimental: (§2) The cytotoxicity of compounds of formula (I) was measured using the H69 parental (H69/P) human small cell lung carcinoma cell line and the drug resistant human small cell lung carcinoma cell line H69/LX4 which overexpresses P-glycoprotein (Pgp). The cytotoxicity, as measured by the IC50 (concentration required to give 50% cell kill) in the H69/LX4 cell line divided by the cytotoxicity in the H69/P cell line gives an indication of the degree to which a compound is affected by Pgp-dependent MDR and is termed the resistance factor (Rf) of the compound.
(§3) H69/P and H69/LX4 cells were pipetted into 96-well tissue culture plates and then allowed to incubate at 37° C. for 4 h. […] The plates were incubated for 5–6 days before adding AlamarBlue to each well and returning the plates to the incubator for 5–8 h to allow colour development. The cell numbers in the plates at the end of this period were directly proportional to the absorbance measured at a wavelength of 570 nm (reference wavelength 600 nm).

[4] = tested on: drug resistant human non-small cell lung carcinoma cell line COR-L23/R which overexpresses multidrug resistance associated protein (MRP); assay: Cytotoxicity, drug resistant COR-L23/R cell line (SRB assay); type: cell-based; conditions: for Rf (resistance factor): IC50 in L23/R divided by IC50 in L23/P, MRP-dependant MDR
Experimental: (§4) The cytotoxicity of the compounds described herein was also measured using the COR-L23 parental (COR-L23/P) human non-small cell lung carcinoma cell line and also the drug resistant human non-small cell lung carcinoma cell line COR-L23/R which overexpresses multidrug resistance associated protein (MRP). The cytotoxicity, as measured by the IC50 (concentration required to give 50% cell kill) in the L23/R cell line divided by the cytotoxicity in the L23/P cell line gives an indication of the degree to which a compound may be affected by MRP-dependant MDR and is termed the resistance factor (Rf) of the compound.
(§5) L23/P and L23/R cells were pipetted into 96-well tissue culture plates and then allowed to incubate at 37° C. for 4 h. […] The plates were incubated for 5–6 days before proliferation was assessed using the sulphurhodamine B (SRB) assay as described by Skehan et al, J Natl Cancer Inst 1990, 82, pp 1107–1112.

[5] = tested on: doxorubicin-resistant Jurkat human leukaemia cell line (JLD); assay: Cytotoxicity, doxorubicin-resistant Jurkat cell line JLD; type: cell-based; conditions: for Rf (JLD/JLC): IC50 in JLD divided by IC50 in JLC, atypical drug resistance; for IC50: concentration required to give 50% cell kill
Experimental: as §1

[6] = tested on: COR-L23 parental (COR-L23/P) human non-small cell lung carcinoma cell line; assay: Cytotoxicity, COR-L23 parental cell line (SRB assay); type: cell-based; conditions: concentration required to give 50% cell kill, 5–6 days incubation
Experimental: as §4, §5

[7] = tested on: H69 parental (H69/P) human small cell lung carcinoma cell line; assay: Cytotoxicity, H69 parental cell line (AlamarBlue); type: cell-based; conditions: concentration required to give 50% cell kill, 5–6 days incubation
Experimental: as §2, §3

[8] = Cytotoxicity, drug resistant COR-L23/R cell line (SRB assay); type: cell-based, human; conditions: Homo sapiens, COR-L23/R; concentration required to give 50% cell kill; 5–6 days incubation
Experimental: as §4, §5

| SMILES | IC50 [1] [nM] | Rf (JLA/JLC) [2] | IC50 [2] [nM] | Rf (resistance factor) [3] | IC50 [3] [nM] | Rf (resistance factor) [4] | IC50 ([4]; concentration required to give 50% cell kill, 5–6 days incubation) [nM] | Rf (JLD/JLC) [5] | IC50 [5] [nM] | IC50 [6] [nM] | IC50 [7] [nM] | IC50 ([1]; Homo sapiens, Jurkat) [nM] | IC50 ([2]; Homo sapiens, Jurkat) [nM] | IC50 ([3]; Homo sapiens) [nM] | IC50 [8] [nM] | IC50 ([5]; Homo sapiens, Jurkat) [nM] | IC50 ([6]; Homo sapiens, COR-L23) [nM] | IC50 ([7]; Homo sapiens) [nM] |
| --- | --- | --- | --- | --- | --- | --- | --- | --- | --- | --- | --- | --- | --- | --- | --- | --- | --- | --- |
| COc1cccc2c1ccc1nc3cccc(C(=O)N[C@@H](CN(C)C)C(C)C)c3nc12 [Compound 98, (R)-4-Methoxy-benzo[a]phenazine-11-carboxylic acid(1-dimethylaminomethyl-2-methyl-propyl)-amide] | 8.6 | 2.1 | 18 | 1 | 20 | 0.9 | 8.8 | 1.6 | 14 | 9.6 | 21 | – | – | – | – | – | – | – |
| COc1cc(C(=O)NCCN(C)C)c2nc3c(ccc4c(OC)cccc43)nc2c1 [Compound 94, 4,9-Dimethoxy-benzo[a]phenazine-11-carboxylic acid (2-dimethylamino-ethyl)-amide] | – | 1.8 | – | 1.3 | – | 0.7 | – | 1.6 | – | – | – | 9.2 | 16 | 25 | 3.8 | 14 | 5.7 | 19 |
| COc1cccc2c1C(=O)c1c(O)c3c(c(O)c1C2=O)C[C@@](O)(C(=O)CO)C[C@@H]3O[C@H]1C[C@H](N)[C@H](O)[C@H](C)O1 [Doxorubicin, reference compound] | – | 3.7 | – | 135 | – | 16.1 | – | – | – | – | – | 7 | – | 3700 | – | – | – | – |
| CC[C@@]1(O)C(=O)OCc2c1cc1n(c2=O)Cc2cc3c(CN(C)C)c(O)ccc3nc2-1 [Topotecan, reference compound] | – | – | – | 3.9 | – | 1.5 | – | – | – | – | – | – | – | – | – | – | – | – |
| CN(C)CCNC(=O)c1cccc2nc3ccc4cc(O)ccc4c3nc12 [Compound 2, 3-Hydroxy-benzo[a]phenazine-11-carboxylic acid (2-dimethylamino-ethyl)-amide] | – | 2.6 | – | – | – | – | – | 2.9 | – | – | – | 37 | 96 | – | – | 107 | – | – |
| COc1cccc2c1ccc1nc3cccc(C(=O)N[C@H](CO)CN(C)C)c3nc12 [Compound 81, 4-Methoxy-benzo[a]phenazine-11-carboxylic acid (2-dimethylamino-1-(S)-hydroxymethyl-ethyl)-amide] | – | 1.1 | – | 1.2 | – | 3.1 | – | 1.1 | – | – | – | 8.7 | 9.2 | 25 | 12.4 | 9.3 | 4 | 20 |
| COc1cccc2c1ccc1nc3cccc(C(=O)NC(C)(CCO)N(C)C)c3nc12 (centres unmarked) [Compound 87, 4-Methoxy-benzo[a]phenazine-11-carboxylic acid [1-dimethylamino-1-(2-hydroxyethyl)]-ethylamide] | 16 | 1.0 | 16 | – | – | – | – | 1.0 | 17 | – | – | – | – | – | – | – | – | – |
| COc1cccc2c1ccc1nc3cccc(C(=O)NC(CO)CN(C)C)c3nc12 (centres unmarked) [Compound 75, 4-Methoxy-benzo[a]phenazine-11-carboxylic acid (2-dimethylamino-1-hydroxymethyl-ethyl)-amide] | – | – | – | 1.2 | – | 1.3 | – | – | – | – | – | – | – | 28 | 17.2 | – | 13 | 23 |
| CN(C)CCNC(=O)c1cccc2nc3ccc4c(OCC#N)cccc4c3nc12 [Compound 11, 4-Cyanomethoxy-benzo[a]phenazine-11-carboxylic acid (2-dimethylamino-ethyl)-amide] | – | – | – | 0.9 | – | 2.9 | – | – | – | – | – | – | – | 24 | 17.7 | – | 6.1 | 28 |
| CN(C)CCNC(=O)c1c(O)ccc2nc3ccc4c(O)cccc4c3nc12 [Compound 68, 4,10-Dihydroxy-benzo[a]phenazine-11-carboxylic acid (2-dimethylamino-ethyl)-amide] | – | – | – | 1.3 | – | 3.4 | – | – | – | – | – | – | – | 25 | 44.4 | – | 13.1 | 19 |
